Legend:
[1] = tested on: G-401 (Other Solid Carcinomas); assay: combination Emax (second highest fraction inhibited in the dose matrix, 72 h); higher = more inhibition; extreme values may be limits of the assay
In short: (§1)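 After 24 hours at 37°C and 5% CO2 in 1536-well plates, cells in DMEM/F12 or RPMI plus 10% FBS received two-drug dose matrices for 72 hours. Viability came from CellTiter-Glo 2.0 luminescence and was scaled as inhibition, anchored at 0 by vehicle wells and at 1 by blank wells. Combination Emax is taken as the second-highest inhibition in the matrix, and Bliss excess as the observed combination effect less EA + EB − EA·EB, with EA and EB the single-agent effects.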

[2] = tested on: CADO-ES1 (Ewing's Sarcoma); assay: as above
In short: as §1

EW-1 (Ewing's Sarcoma) = assay: as above
In short: as §1

[3] = tested on: LC-1-sq (Squamous Cell Lung Carcinoma); assay: as above
In short: as §1

[4] = tested on: OACM5-1 (Esophageal Adenocarcinoma); assay: as above
In short: as §1

[5] = tested on: HCC1500 (Breast Carcinoma); assay: as above
In short: as §1

[6] = tested on: SK-LU-1 (Lung Adenocarcinoma); assay: as above
In short: as §1

[7] = tested on: HCC1937 (Breast Carcinoma); assay: as above
In short: as §1

[8] = tested on: NCI-H1838 (Lung Adenocarcinoma); assay: as above
In short: as §1

[9] = tested on: NCI-H650 (Lung Adenocarcinoma); assay: as above
In short: as §1

Hey (Ovarian Carcinoma) [10] = assay: as above
In short: as §1

[11] = tested on: ALL-SIL (T-Lymphoblastic Leukemia); assay: as above
In short: as §1

[12] = tested on: EJM (Plasma Cell Myeloma); assay: as above
In short: as §1

[13] = tested on: NCI-H1092 (Small Cell Lung Carcinoma); assay: as above
In short: as §1

[14] = tested on: G-401 (Other Solid Carcinomas); assay: Bliss excess, mean over the matrix (fraction); higher = more synergy
In short: as §1

[15] = tested on: HCC2998 (Colorectal Carcinoma); assay: as above
In short: as §1

[16] = tested on: OACM5-1 (Esophageal Adenocarcinoma); assay: as above
In short: as §1

[17] = tested on: HCC1937 (Breast Carcinoma); assay: as above
In short: as §1

[18] = tested on: NCI-H1838 (Lung Adenocarcinoma); assay: as above
In short: as §1

Hey (Ovarian Carcinoma) [19] = assay: as above
In short: as §1
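Wherever Bliss excess, mean over the matrix is given: after 72 h of two-drug dosing.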

| SMILES | combination Emax [1] | combination Emax [2] | combination Emax (EW-1 (Ewing's Sarcoma)) | combination Emax [3] | combination Emax [4] | combination Emax [5] | combination Emax [6] | combination Emax [7] | combination Emax [8] | combination Emax [9] | combination Emax (Hey (Ovarian Carcinoma) [10]) | combination Emax [11] | combination Emax [12] | combination Emax [13] | Bliss excess [14] | Bliss excess [15] | Bliss excess [16] | Bliss excess [17] | Bliss excess [18] | Bliss excess (Hey (Ovarian Carcinoma) [19]) |
| --- | --- | --- | --- | --- | --- | --- | --- | --- | --- | --- | --- | --- | --- | --- | --- | --- | --- | --- | --- | --- |
| CN(CCO)CC[C@H](CSc1ccccc1)Nc1ccc(S(=O)(=O)NC(=O)c2ccc(N3CCC([C@@H](O)c4ccccc4-c4ccc(Cl)cc4)CC3)cc2)cc1S(=O)(=O)C(F)(F)F [AZD4320] + C1CN(CCC1(C(=O)N[C@@H](CCO)C2=CC=C(C=C2)Cl)N)C3=NC=NC4=C3C=CN4 [Capivasertib] (first compound max 1 µM, 7x7, partner max 3 µM) | 0.529 | 0.613 | 0.67 | 0.134 | 0.617 | 0.993 | 0.267 | 0.434 | 0.178 | 0.134 | 0.106 | 1 | 0.525 | 0.813 | -0.0591 | -0.0128 | -0.0272 | -0.0881 | -0.0392 | -0.0385 |
| CN(CCO)CC[C@H](CSc1ccccc1)Nc1ccc(S(=O)(=O)NC(=O)c2ccc(N3CCC([C@@H](O)c4ccccc4-c4ccc(Cl)cc4)CC3)cc2)cc1S(=O)(=O)C(F)(F)F [AZD4320] + CC(=O)O[C@H]1C(=O)[C@@]2(C)[C@H]([C@H](OC(=O)c3ccccc3)[C@]3(O)C[C@H](OC(=O)[C@H](O)[C@@H](NC(=O)c4ccccc4)c4ccccc4)C(C)=C1C3(C)C)[C@]1(OC(C)=O)CO[C@@H]1C[C@@H]2O [Paclitaxel] (first compound max 1 µM, 7x7, partner max 3 µM) |  |  |  |  |  |  | 0.741 |  |  |  |  |  |  |  |  |  |  |  |  |  |
| CN(CCO)CC[C@H](CSc1ccccc1)Nc1ccc(S(=O)(=O)NC(=O)c2ccc(N3CCC([C@@H](O)c4ccccc4-c4ccc(Cl)cc4)CC3)cc2)cc1S(=O)(=O)C(F)(F)F [AZD4320] + CCN(CCO)CCCOc1ccc2c(Nc3cc(CC(=O)Nc4cccc(F)c4)[nH]n3)ncnc2c1 [AZD2811] (first compound max 1 µM, 7x7, partner max 1 µM) | 0.517 | 0.668 | 0.863 | 0.264 | 0.398 | 0.997 | 0.281 | 0.489 | 0.216 | 0.157 | 0.254 | 1 | 0.406 | 0.866 | 0.0082 | 0.103 | 0.0473 | -0.0513 | 0.0003 | -0.0022 |
| CN(CCO)CC[C@H](CSc1ccccc1)Nc1ccc(S(=O)(=O)NC(=O)c2ccc(N3CCC([C@@H](O)c4ccccc4-c4ccc(Cl)cc4)CC3)cc2)cc1S(=O)(=O)C(F)(F)F [AZD4320] + C[C@@H]1COCCN1C2=NC(=NC(=C2)C3(CC3)[S@](=N)(=O)C)C4=C5C=CNC5=NC=C4 [AZD6738] (first compound max 1 µM, 7x7, partner max 10 µM) | 0.742 | 0.939 | 0.997 | 0.845 | 0.663 | 1 | 0.663 | 0.761 | 0.694 | 0.415 | 0.869 | 1 | 0.929 | 0.915 | -0.0287 | -0.0283 | 0.0144 | -0.0241 | -0.0445 | -0.0697 |
| CN(CCO)CC[C@H](CSc1ccccc1)Nc1ccc(S(=O)(=O)NC(=O)c2ccc(N3CCC([C@@H](O)c4ccccc4-c4ccc(Cl)cc4)CC3)cc2)cc1S(=O)(=O)C(F)(F)F [AZD4320] + Cc1cc2ncnn2cc1Nc1ncc2c(n1)n(C1CCOCC1)c(=O)n2C [AZD7648] (first compound max 1 µM, 7x7, partner max 10 µM) | 0.424 | 0.608 | 0.745 | 0.158 | 0.577 | 0.998 | 0.421 | 0.29 | 0.289 | 0.134 | 0.247 | 1 | 0.382 | 0.855 | -0.0392 | -0.0035 | -0.0545 | -0.0352 | -0.0291 | -0.0728 |
| CN(CCO)CC[C@H](CSc1ccccc1)Nc1ccc(S(=O)(=O)NC(=O)c2ccc(N3CCC([C@@H](O)c4ccccc4-c4ccc(Cl)cc4)CC3)cc2)cc1S(=O)(=O)C(F)(F)F [AZD4320] + Nc1ccn([C@@H]2O[C@H](CO)[C@@H](O)C2(F)F)c(=O)n1 [Gemcitabine] (first compound max 1 µM, 7x7, partner max 0.3 µM) |  |  |  |  |  |  | 0.248 |  |  |  |  |  |  |  |  |  |  |  |  |  |
| Cc1c2c(nn1C)CSCc1cc(n(C)n1)CSc1cc(c3ccccc3c1)OCCCc1c(C(=O)O)n(C)c3c-2c(Cl)ccc13 [AZD5991] + Cn1cnc2c(F)c(Nc3ccc(Br)cc3Cl)c(C(=O)NOCCO)cc21 [Selumetinib] (first compound max 1 µM, 7x7, partner max 3 µM) | 0.474 | 0.874 | 0.273 | 0.311 | 0.94 | 0.41 | 0.476 | 0.464 | 0.511 | 0.432 | 0.563 | 1 | 0.983 | 0.608 | -0.0039 | 0.0417 | 0.0491 | 0.0328 | 0.003 | -0.0033 |
| Cc1cc2ncnn2cc1Nc1ncc2c(n1)n(C1CCOCC1)c(=O)n2C [AZD7648] + COc1cc([C@@H]2c3cc4c(cc3[C@@H](O[C@@H]3O[C@@H]5CO[C@@H](C)O[C@H]5[C@H](O)[C@H]3O)[C@H]3COC(=O)[C@H]23)OCO4)cc(OC)c1O [Etoposide] (first compound max 10 µM, 7x7, partner max 10 µM) |  |  |  |  |  |  | 0.47 |  |  |  |  |  |  |  |  |  |  |  |  |  |
| Cc1cc2ncnn2cc1Nc1ncc2c(n1)n(C1CCOCC1)c(=O)n2C [AZD7648] + O=C(c1cc(Cc2n[nH]c(=O)c3ccccc23)ccc1F)N1CCN(C(=O)C2CC2)CC1 [Olaparib] (first compound max 10 µM, 7x7, partner max 10 µM) | 0.434 | 0.548 | 0.732 | 0.17 | 0.267 | 0.269 | 0.329 | 0.154 | 0.323 | 0.14 | 0.266 | 0.315 | 0.2 | 0.111 | -0.0308 | -0.023 | -0.0505 | -0.0498 | -0.0808 | -0.0088 |
| Cc1nc(Nc2ncc(C(=O)Nc3c(C)cccc3Cl)s2)cc(N2CCN(CCO)CC2)n1 [Dasatinib] + CC(=O)Nc1cccc(-n2c(=O)n(C3CC3)c(=O)c3c(Nc4ccc(I)cc4F)n(C)c(=O)c(C)c32)c1 [Trametinib] (first compound max 2 µM, 7x7, partner max 1 µM) | 0.903 | 0.151 | 0.153 | 0.166 | 0.417 | 0.172 | 0.511 | 0.5 | 0.367 | 0.747 | 0.858 | 1 | 0.153 | 0.125 | -0.0089 | 0.111 | -0.0912 | -0.0262 | -0.0793 | 0.001 |
| COc1cc2ncnc(Nc3ccc(F)c(Cl)c3)c2cc1OCCCN1CCOCC1 [Gefitinib] + CC(C)n1c(=O)n(C)c2cnc3cc(F)c(-c4ccc(OCCCN5CCCCC5)nc4)cc3c21 [AZD1390] (first compound max 10 µM, 7x7, partner max 0.3 µM) | 0.404 | 0.123 | 0.344 | 0.265 | 0.191 | 0.113 | 0.245 | 0.272 | 0.19 | 0.106 | 0.0522 | 0.301 | 0.133 | 0.0586 | -0.0446 | -0.0541 | -0.112 | -0.108 | -0.103 | -0.0573 |
| N#Cc1cnc(Nc2cc(NC[C@H]3CNCCO3)c(C(F)(F)F)cn2)cn1 [SRA737] + C=CCn1c(=O)c2cnc(Nc3ccc(N4CCN(C)CC4)cc3)nc2n1-c1cccc(C(C)(C)O)n1 [AZD1775] (first compound max 10 µM, partner max 1 µM) |  |  |  |  |  |  | 0.442 |  |  |  |  |  |  |  |  |  |  |  |  |  |
| N#Cc1cnc(Nc2cc(NC[C@H]3CNCCO3)c(C(F)(F)F)cn2)cn1 [SRA737] + CCc1c2c(nc3ccc(O)cc13)-c1cc3c(c(=O)n1C2)COC(=O)[C@]3(O)CC [SN-38] (first compound max 10 µM, 7x7, partner max 0.3 µM) |  |  |  |  |  |  | 0.639 |  |  |  |  |  |  |  |  |  |  |  |  |  |
| N#Cc1cnc(Nc2cc(NC[C@H]3CNCCO3)c(C(F)(F)F)cn2)cn1 [SRA737] + Nc1ccn([C@@H]2O[C@H](CO)[C@@H](O)C2(F)F)c(=O)n1 [Gemcitabine] (first compound max 10 µM, 7x7, partner max 0.3 µM) |  |  |  |  |  |  | 0.389 |  |  |  |  |  |  |  |  |  |  |  |  |  |
| N#Cc1cnc(Nc2cc(NC[C@H]3CNCCO3)c(C(F)(F)F)cn2)cn1 [SRA737] + O=c1[nH]cc(F)c(=O)[nH]1 [5-Fluorouracil] (first compound max 10 µM, 7x7, partner max 20 µM) |  |  |  |  |  |  | 0.369 |  |  |  |  |  |  |  |  |  |  |  |  |  |

From the supplement of paper PMC11061612
